Values of other authors, collected in US20050181044A1, “Compositions and methods for timed release of water-soluble nutritional supplements, green coffee extract” (priority 2004, published 2005).

Settings: absorbed by the gastrointestinal tract, after first-pass metabolism in the liver

bioavailability: 26%
SMILES: N[C@H]1C(O)O[C@H](CO)[C@@H](O)[C@@H]1O (stereo partly shown) [Glucosamine]
